Results on 19 compounds are retold here after patent publication US20180186742A1, “PICOLINAMIDES AS FUNGICIDES” (Dow AgroSciences LLC, priority 2017, published 2018).

What all share (assay type): in vivo
For experiment [1], the system named is Zymoseptoria tritici. Put plainly: Leaf blotch of wheat (SEPTTR), disease control on wheat seedlings. The settings on record: low volume application at 121.5 g/H. Summed up:
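Z. tritici spores were inoculated onto wheat seedlings (Yuma, first leaf emerged) either before or after treatment. Treatment was an automated spray to run-off of acetone/Triton X-100 water solutions, or a track spray of EC formulations with 0.1% Trycol 5941. Plants were held in dew chambers at 20 °C and then a greenhouse at 20 °C. First-leaf severity (0–100%) was converted to percent control against untreated plants.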

The subject of experiment [2] is Phakopsora pachyrhizi. Briefly: Asian soybean rust (PHAKPA), disease control on soybean seedlings. The settings on record: High volume application at 25 ppm. The method, then: Technical grades of materials were dissolved in acetone, which were then mixed with nine volumes of water containing 0.011% Tween 20. The fungicide solutions were applied onto soybean seedlings using an automated booth sprayer to run-off. All sprayed plants were allowed to air dry prior to further handling.
Soybean plants (variety Williams 82) were grown in soil-less Metro mix, with one plant per pot. Two week old seedlings were used for testing. Plants were inoculated either 3 days prior to or 1 day after fungicide treatments. Plants were incubated for 24 h in a dark dew room at 22° C. and 100% relative humidity then transferred to a growth room at 23° C. for disease to develop. Disease severity was assessed on the sprayed leaves.

Experiment [3] relates to Puccinia triticina. Put plainly: Wheat brown rust (PUCCRT), disease control on wheat seedlings. The settings on record: low volume application at 121.5 g/H. Summed up: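 Compounds in acetone, diluted with nine volumes of water containing 110 ppm Triton X-100, sprayed to run-off on first-leaf Yuma wheat seedlings; track-spray tests used EC formulations with 0.1% Trycol 5941. Puccinia triticina spores applied before or after treatment. Overnight dark dew room at 22° C, 100% humidity, then greenhouse at 24° C.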

The mark [4] stands for this setting: 24 h, 1 Day Protectant, read-out: SEPTTR disease control, 1DP, LV activity.
The mark [5] stands for this setting: 72 h, 3 Day Curative, read-out: SEPTTR disease control, 3DC, LV activity.
[6] abbreviates: 24 h, 1 Day Protectant, read-out: PHAKPA 1DP disease control rating.
The mark [7] stands for this setting: 72 h, 3 Day Curative, read-out: PHAKPA 3DC disease control rating.
The mark [8] stands for this setting: 24 h, 1 Day Protectant, read-out: PUCCRT disease control, 1DP, LV activity.
Setting [9] is: 72 h, 3 Day Curative, read-out: PUCCRT disease control, 3DC, LV activity.
Where [10] appears, read: 24 h, 1 Day Protectant, wheat leaf blotch, read-out: SEPTTR 1DP disease control, LV activity.
Where [11] appears, read: 72 h, 3 Day Curative, wheat leaf blotch, read-out: SEPTTR 3DC disease control, LV activity.
Setting [12] is: 24 h, 1 Day Protectant, wheat brown rust, read-out: PUCCRT 1DP disease control, LV activity.
Where [13] appears, read: 72 h, 3 Day Curative, wheat brown rust, read-out: PUCCRT 3DC disease control, LV activity.

SMILES strings stand for the structures. Read-outs that look alike come from different tables or passages of the source.

In the case of `COc1ccnc(C(=O)N[C@@H](CC(C)C)C(=O)O[C@@H](C)[C@H](c2ccc(F)cc2C)C(C)C)c1OC(C)=O` [Compound 349], the pest or weed control at 121.5 g/ha in experiment [1] (setting [4]) was < 80%; in experiment [1] (setting [5]), < 80%; in experiment [3] (setting [8]) it was > 80%; in experiment [3] (setting [9]), < 80%. Besides, the pest or weed control at 25 ppm in experiment [2] (setting [6]) is > 80%; in experiment [2] (setting [7]) it was < 80%.
Regarding `COc1ccnc(C(=O)N[C@@H](C)C(=O)O[C@H](C)[C@H](c2ccc(F)cc2C)C2CCCCC2)c1OCOC(C)=O` [Compound 199], the pest or weed control at 121.5 g/ha in experiment [1] (setting [4]) was > 80%; in experiment [1] (setting [5]), < 80%; in experiment [3] (setting [8]), < 80%; in experiment [3] (setting [9]) it was < 0%. The pest or weed control at 25 ppm in experiment [2] (setting [6]) and in experiment [2] (setting [7]) was < 80% throughout.
Turning to `COc1ccnc(C(=O)N[C@@H](C)C(=O)O[C@@H](C)[C@@H](c2ccc(C)cc2C)C2CCCCC2)c1OCOC(C)=O` [Compound 206], the pest or weed control at 121.5 g/ha in experiment [1] (setting [4]) was < 80%; in experiment [1] (setting [5]), < 80%; in experiment [3] (setting [8]) it was < 80%; in experiment [3] (setting [9]), < 0%. In addition, the pest or weed control at 25 ppm was < 80% in experiment [2] (setting [6]) and < 0% in experiment [2] (setting [7]).
Take `CCC(C)[C@H](c1ccc(F)cc1C)[C@H](C)OC(=O)[C@H](C)NC(=O)c1nccc(OC)c1OC(C)=O` (stereo partly drawn) [Compound 182]: the pest or weed control at 121.5 g/ha in experiment [1] (setting [4]) was < 80%; in experiment [1] (setting [5]) it was > 80%; in experiment [3] (setting [8]), > 80%; in experiment [3] (setting [9]), < 80%. Further, the pest or weed control at 25 ppm in experiment [2] (setting [6]) and in experiment [2] (setting [7]) was < 80% throughout.
On to `CCC(CC)[C@H](c1ccc(F)cc1C)[C@H](C)OC(=O)[C@H](C)NC(=O)c1nccc(OC)c1OC(C)=O` [Compound 179], for which the pest or weed control at 121.5 g/ha in experiment [1] (setting [4]) is > 80%; in experiment [1] (setting [5]) it was > 80%; in experiment [3] (setting [8]), > 80%; in experiment [3] (setting [9]) it was < 0%. Besides, the pest or weed control at 25 ppm in experiment [2] (setting [6]) and in experiment [2] (setting [7]) was < 80% in each case.
For the compound `COc1ccnc(C(=O)N[C@@H](C)C(=O)O[C@@H](C)[C@H](c2ccc(C)cc2F)C(C)C)c1OC(C)=O` [Compound 366], the pest or weed control at 121.5 g/ha in experiment [1] (setting [10]) is < 80%; in experiment [1] (setting [11]) it was < 80%; in experiment [3] (setting [12]), > 80%; in experiment [3] (setting [13]) it was > 80%. Further, the pest or weed control at 25 ppm in experiment [2] (setting [6]) is > 80%; in experiment [2] (setting [7]), < 80%.
Take `COc1ccnc(C(=O)N[C@@H](C)C(=O)O[C@@H](C)[C@H](c2ccc(F)cc2)C(C)C)c1OC(C)=O` [Compound 214]: the pest or weed control at 121.5 g/ha in experiment [1] (setting [4]), in experiment [1] (setting [5]), in experiment [3] (setting [8]) and in experiment [3] (setting [9]) was > 80% throughout. The pest or weed control at 25 ppm is > 80% in experiment [2] (setting [6]) and < 80% in experiment [2] (setting [7]).
In the case of `COc1ccnc(C(=O)N[C@@H](C)C(=O)O[C@@H](C)[C@H](c2ccc(Cl)cc2)C(C)C)c1OC(C)=O` [Compound 242], the pest or weed control at 121.5 g/ha in experiment [1] (setting [4]), in experiment [1] (setting [5]), in experiment [3] (setting [8]) and in experiment [3] (setting [9]) was > 80% each time. For the same compound, the pest or weed control at 25 ppm is > 80% in experiment [2] (setting [6]) and < 80% in experiment [2] (setting [7]).
For the compound `COc1cc(F)ccc1[C@@H](C1CCC1)[C@H](C)OC(=O)[C@H](C)NC(=O)c1nccc(OC)c1OC(C)=O` [Compound 226], the pest or weed control at 121.5 g/ha in experiment [1] (setting [4]), in experiment [1] (setting [5]), in experiment [3] (setting [8]) and in experiment [3] (setting [9]) was < 80% each time. Moreover, the pest or weed control at 25 ppm was < 80% in experiment [2] (setting [6]) and < 0% in experiment [2] (setting [7]).
With `COc1ccnc(C(=O)N[C@@H](C)C(=O)O[C@H](C)[C@H](c2ccc(F)cc2C)C2CCCC2)c1OCOC(C)=O` [Compound 198], the pest or weed control at 121.5 g/ha in experiment [1] (setting [4]) was < 80%; in experiment [1] (setting [5]) it was < 80%; in experiment [3] (setting [8]), < 80%; in experiment [3] (setting [9]) it was < 0%. Also, the pest or weed control at 25 ppm in experiment [2] (setting [6]) and in experiment [2] (setting [7]) was < 80% each time.
As for `COc1ccnc(C(=O)N[C@@H](C)C(=O)O[C@@H](C)[C@@H](c2ccc(C)cc2C)C2CCC2)c1OCOC(C)=O` [Compound 240], the pest or weed control at 121.5 g/ha is < 80% in experiment [1] (setting [4]), > 80% in experiment [1] (setting [5]), > 80% in experiment [3] (setting [8]) and > 80% in experiment [3] (setting [9]). The pest or weed control at 25 ppm is > 80% in experiment [2] (setting [6]) and < 80% in experiment [2] (setting [7]).
As for `COc1ccnc(C(=O)N[C@@H](C)C(=O)O[C@@H](C)[C@H](c2ccccc2)C(C)C)c1OCOC(C)=O` [Compound 164], the pest or weed control at 121.5 g/ha in experiment [1] (setting [4]), in experiment [1] (setting [5]), in experiment [3] (setting [8]) and in experiment [3] (setting [9]) was > 80% each time. Also, the pest or weed control at 25 ppm in experiment [2] (setting [6]) was > 80%; in experiment [2] (setting [7]) it was < 80%.
For `COc1ccnc2c(=O)n([C@@H](C)C(=O)O[C@@H](C)[C@@H](c3ccc(C)cc3C)C(C)C)c(=O)oc12` [Compound 208], the pest or weed control at 121.5 g/ha in experiment [1] (setting [4]) was < 0%; in experiment [1] (setting [5]), < 80%; in experiment [3] (setting [8]) it was < 80%; in experiment [3] (setting [9]) it was < 80%. Further, the pest or weed control at 25 ppm in experiment [2] (setting [6]) was < 80%; in experiment [2] (setting [7]), < 0%.
Turning to `COc1ccnc(C(=O)N[C@@H](C)C(=O)O[C@@H](C)[C@@H](c2ccc(C)cc2C)C(C)C)c1OC(C)=O` [Compound 200], the pest or weed control at 121.5 g/ha in experiment [1] (setting [4]) was < 0%; in experiment [1] (setting [5]), < 80%; in experiment [3] (setting [8]), < 80%; in experiment [3] (setting [9]) it was < 80%. The pest or weed control at 25 ppm was < 80% in experiment [2] (setting [6]) and < 0% in experiment [2] (setting [7]).
`COc1cc(F)ccc1[C@H](C(C)C)[C@H](C)OC(=O)[C@H](C)NC(=O)c1nccc(OC)c1OC(C)=O` [Compound 232]: the pest or weed control at 121.5 g/ha in experiment [1] (setting [4]) was > 80%; in experiment [1] (setting [5]), < 80%; in experiment [3] (setting [8]), > 80%; in experiment [3] (setting [9]), > 80%. The pest or weed control at 25 ppm in experiment [2] (setting [6]) and in experiment [2] (setting [7]) was > 80% throughout.
Take `COc1ccc([C@H](C(C)C)[C@H](C)OC(=O)[C@H](C)NC(=O)c2nccc(OC)c2OCOC(C)=O)cc1` [Compound 382]: the pest or weed control at 121.5 g/ha in experiment [1] (setting [10]) is < 80%; in experiment [1] (setting [11]) it was > 80%; in experiment [3] (setting [12]), > 80%; in experiment [3] (setting [13]) it was > 80%. For the same compound, the pest or weed control at 25 ppm was > 80% in experiment [2] (setting [6]) and < 80% in experiment [2] (setting [7]).
In the case of `COc1ccnc(C(=O)N[C@@H](C)C(=O)O[C@@H](C)[C@H](c2ccc(OC(F)(F)F)cc2)C(C)C)c1OC(C)=O` [Compound 381], the pest or weed control at 121.5 g/ha in experiment [1] (setting [10]) is > 80%; in experiment [1] (setting [11]), > 80%; in experiment [3] (setting [12]), > 80%; in experiment [3] (setting [13]), < 80%. Also, the pest or weed control at 25 ppm in experiment [2] (setting [6]) and in experiment [2] (setting [7]) was < 80% throughout.
Turning to `COc1cc(F)ccc1[C@@H](C1CCCC1)[C@H](C)OC(=O)[C@H](C)NC(=O)c1nccc(OC)c1OCOC(C)=O` [Compound 234], the pest or weed control at 121.5 g/ha in experiment [1] (setting [4]) is < 80%; in experiment [1] (setting [5]), < 80%; in experiment [3] (setting [8]) it was > 80%; in experiment [3] (setting [9]), < 80%. The pest or weed control at 25 ppm in experiment [2] (setting [6]) is > 80%; in experiment [2] (setting [7]) it was < 0%.
`COc1ccnc(C(=O)N[C@@H](C)C(=O)O[C@@H](C)[C@H](c2ccccc2OC(C)C)C(C)C)c1OC(C)=O` [Compound 376]: the pest or weed control at 121.5 g/ha in experiment [1] (setting [10]) is < 80%; in experiment [1] (setting [11]), < 80%; in experiment [3] (setting [12]), > 80%; in experiment [3] (setting [13]) it was < 80%. The results for the pest or weed control at 25 ppm in experiment [2] (setting [6]) and in experiment [2] (setting [7]) were > 80% and < 80%, respectively.
